Where a name gives a salt, the structure may show the parent alone.
Legend:
Type in all cases: biochemical
[1] = tested on: MMP; assay: MMP inhibitory activity
[2] = biological target: T1, MMP-3 (recombinant truncated stromelysin) (Homo sapiens, UniProt P08254); assay: Primary Thiopeptilide MMP-3 Inhibition Assay; conditions: for IC50: x (n): average IC50 of n separate determinations
T1 construct: made in house; host or cells: E. coli
Procedure: Reaction mixtures for inhibitor studies contained 1 mM Ac-Pro-Leu-Gly-S-Leu-Leu-Gly-o-ethyl thiopeptolide substrate dissolved in HEPES assay buffer pH 6.5, along with 0.5 mM 5,5'-dithio-bis-(nitrobenzoicacid), drug concentrations ranging from 0.5 nM to 5 μM and activated enzyme (10-100 ng) in a total volume of 130 μl. […] Enzyme mediated substrate hydrolysis was corrected for non-enzymatic hydrolysis of the substrate by the subtraction of values from control samples incubated in the absence of enzyme. Drug efficacy was reported as the percent inhibition of enzyme activity calculated as:
Enzyme: recombinant stromelysin expressed in E.coli and purified as described above. […] The protocols for the assay of compounds as stromelysin inhibitors was the same as that used for MMP-9 except that the assay buffer was 50 mM MES, pH 6.5 containing 150mM NaCl, 10 mM CaCl2, 0.005% Brij, and 1% DMSO.
All IC50 values are expressed as nM. […] When "x (n)" is shown, x is the erage IC50 value of n separate determinations.

[3] = biological target: T2, MMP-9 (Gelatinase-B, 92 kDa) (Homo sapiens, UniProt P14780); assay: Thiopeptilide MMP-9 Inhibition Assay; conditions: for IC50: x (n): average IC50 of n separate determinations
T2 construct: from tissue; host or cells: human polymorphonuclear leukocytes from fresh whole blood (New York Blood Center), PMA-stimulated supernatant, purified
Procedure: MMP-9 was isolated modifying the previously described procedures of Hibbs et al (J. Biol. Chem., 260, 2493-2500, 1984) and Wilhelm et al (J. Biol. Chem., 264, 17213-17221, 1989). Briefly, polymorphonuclear leukocytes (PMN) preparations were isolated as described above from 3 or more units of freshly drawn whole blood obtained from the New York Blood Center (N.Y., N.Y.). Cells were resuspended in phosphate buffered saline (PBS) containing 100 ng/ml phorbol myristate acetate (PMA) in the presence of 50 mM di-isopropylfluorophospate (DFP), 1 μg/ml leupeptin and aprotinin, and 1 mg/ml catalase for 1 hr at 37° C. Supernatants were collected by centrifugation (300×g) and the samples were frozen at -70° C. All chromatographic methods were performed at 4° C. Thawed samples were concentrated 5-fold using an Amicon chamber equipped with a YM-10 membrane. The concentrate was pressure dialyzed against 0.02M Tris-HCl, 0.1M NaCl, 1 mM CaCl2, 1 μM ZnCl2, 0.001 % Brij-35, 0.02% sodium azide (NaN3), pH 7.5 and applied to DEAE ion exchange chromatography resin which was previously equilibrated with the same buffer at a flow rate of 0.4 ml/min. The column was extensively washed with the same buffer and gelatinase was eluted as 4 ml fractions from the column with 0.02M Tris-HCl, 0.5M NaCl, 1 mM CaCl2, 1 μM ZnCl2, 0.001% Brij-35, 0.02% NaN3, pH 7.5. Gelatinase containing fractions were observed by gelatin zymography (see below), loaded onto a gelatin agarose affinity resin and washed with the same buffer. Gelatinase activity was eluted at a flow rate of 1 ml/min from the column as 1 ml fractions with 0.02M Tris-HCl, 1M NaCl, 1 mM CaCl2, 1 μmM ZnCl2, 0.001% Brij-35, 0.02% NaN3, pH 7.5 containing 10% dimethyl sulfoxide (DMSO). The fractions containing gelatinase activity were pooled and dialyzed against 0.005M Tris-HCl, 5 mM NaCl, 0.5 mM CaCl2, 0.1 μM ZnCl2, 0.001% Brij-35, pH 7.4. The protein content associated with material was determined with a micro-BCA assay (Pierce, Rockford, Ill.), lyophilized and reconstituted to a desired working concentration (100 μg/ml).
Progelatinase (10 μg/ml) isolated from human PMNs (described above) was activated with 1 mM 4-aminophenylmercuric acetate (APMA) in 50 mM Tris-HCl, 200 mM NaCl, 5 mM CaCl2, 0.001% Brij-35, pH 7.6 at 37° C. for 16 hr. The activated enzyme was dialyzed against the above buffer to remove APMA. The thiopeptolide spectrophotometric ( Weingarten, H., Feder, J., Anal. Biochem., 147, 437-440, 1985) substrate hydrolysis assay was modified to a micro-assay format. Spectrophotometric analysis of MMP-9 activity required a 1000-fold dilution of activated MMP-9 (10 ng/ml, 0.14 nM) in assay buffer comprised of 50 mM 4-(2-hydroxyethyl)1-piperazine ethane sulfonic acid (HEPES), 0.15M NaCl, 10 mM CaCl2, 0.001% Brij-35, pH 6.5 between 100 and 1000-fold for enzyme assays. Reaction mixtures for inhibitor studies contained 1 mM Ac-Pro-Leu-Gly-S-Leu-Leu-Gly-o-ethyl thiopeptolide substrate dissolved in HEPES assay buffer pH 6.5, along with 0.5 mM 5,5'-dithio-bis-(nitrobenzoicacid), drug concentrations ranging from 0.5 nM to 5 μM and activated enzyme (10-100 ng) in a total volume of 130 μl. The hydrolysis of substrate was monitored at 405 nm using an automated plate reader (Molecular Devices, Menlo Park, Calif.). Enzyme mediated substrate hydrolysis was corrected for non-enzymatic hydrolysis of the substrate by the subtraction of values from control samples incubated in the absence of enzyme. Drug efficacy was reported as the percent inhibition of enzyme activity calculated as:
(Control Values-Treated Values)/Control Values×100
Two way analysis of variance was used to determine significance between individual test groups.
All IC50 values are expressed as nM. When "I=x %" is shown, x presents the % inhibition at 5 μM. When "x (n)" is shown, x is the erage IC50 value of n separate determinations.

T1 sequence (P08254 100-274 limits assumed): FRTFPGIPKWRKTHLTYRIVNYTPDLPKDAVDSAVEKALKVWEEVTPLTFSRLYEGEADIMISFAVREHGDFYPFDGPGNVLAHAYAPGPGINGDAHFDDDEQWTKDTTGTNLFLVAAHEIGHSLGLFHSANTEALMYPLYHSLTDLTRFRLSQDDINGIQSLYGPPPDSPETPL
T2 sequence (P14780 107-707 limits assumed): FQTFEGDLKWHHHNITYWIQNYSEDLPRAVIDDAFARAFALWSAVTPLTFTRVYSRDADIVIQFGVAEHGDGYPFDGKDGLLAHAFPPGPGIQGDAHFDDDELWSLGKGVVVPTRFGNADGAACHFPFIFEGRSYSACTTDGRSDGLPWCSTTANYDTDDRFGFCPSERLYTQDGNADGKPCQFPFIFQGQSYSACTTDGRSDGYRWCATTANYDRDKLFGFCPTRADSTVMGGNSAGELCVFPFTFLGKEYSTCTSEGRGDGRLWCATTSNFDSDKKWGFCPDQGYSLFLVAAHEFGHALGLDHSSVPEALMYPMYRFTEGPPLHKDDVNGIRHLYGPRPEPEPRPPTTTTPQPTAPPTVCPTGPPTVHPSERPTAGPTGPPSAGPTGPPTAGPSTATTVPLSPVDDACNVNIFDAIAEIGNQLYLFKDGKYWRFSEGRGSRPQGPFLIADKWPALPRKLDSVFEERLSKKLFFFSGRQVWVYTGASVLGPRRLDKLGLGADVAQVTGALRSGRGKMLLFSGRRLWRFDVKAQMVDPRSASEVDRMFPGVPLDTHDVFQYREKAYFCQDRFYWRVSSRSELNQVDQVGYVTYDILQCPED

Row | SMILES | IC50 [2] | IC50 [3] | further results
1 | CC(=O)SC(CC(=O)c1ccc(Oc2ccc(Cl)cc2)cc1)C(=O)O (stereo not drawn) [Example 183, Benzenebutanoic acid, α-(acetylthio)-4-(4-chlorophenoxy)-γ-oxo-, reference compound] | – | – | MMP inhibitory activity / potency in words [1]: very low potency
2 | O=C(CC(C(=O)O)N1CCSCC1)c1ccc(-c2ccc(Cl)cc2)cc1 (stereo not drawn) [Example 184, 4-Thiomorpholineacetic acid, α-[2-(4'-chloro[1,1'-biphenyl]-4-yl)-2-oxoethyl]-, hydrochloride] | – | – | inhibition at 5 µM ([2]; at 5 μM, read-out: MMP-3 Thiopeptilide % inhibition (I)): 19%
3 | O=C(O)[C@@H]1[C@@H](Sc2ccc(Cl)cc2)CC[C@H]1C(=O)c1ccc(-c2ccc(Cl)cc2)cc1 (relative stereo) [Example 222, Cyclopentanecarboxylic acid, 2-[(4'-chloro [1,1'-biphenyl]-4-yl)carbonyl]-5-[(4-chlorophenyl)thio]-, (1α,2β,5β)-] | 80 nM | 32 nM | –
4 | CCOc1ccc(-c2ccc(C(=O)[C@@H]3CC[C@H](Sc4ccccc4)[C@H]3C(=O)O)cc2)cc1 (relative stereo) [Example 224, Cyclopentanecarboxylic acid, 2-[(4'-ethoxy[1,1'-biphenyl]-4-yl)carbonyl]-5-(phenylthio)-, (1α,2β,5β)-] | 36 nM | – | –
5 | O=C(O)[C@@H]1CC[C@H]1C(=O)c1ccc(-c2ccc(Cl)cc2)cc1 (relative stereo) [Example 206, Cyclobutanecarboxylic acid, 2-[(4'-chloro[1,1'-biphenyl]-4-yl)carbonyl]-, trans-] | – | – | MMP inhibitory activity / potency in words [1]: much more active
6 | CC(C)CC(CC(O)c1ccc(-c2ccc(Cl)cc2)cc1)C(=O)O (stereo not drawn) [Example 27, [1,1'-Biphenyl]-4-butanoic acid, 4'-chloro-γ-hydroxy-α-(2-methylpropyl)-] | 5000 nM | – | –
7 | COC(=O)c1ccccc1S[C@@H]1CC[C@H](C(=O)c2ccc(-c3ccc(Cl)cc3)cc2)[C@H]1C(=O)O (relative stereo) [Example 219, Benzoic acid, 2-[[2-carboxy-3-[(4'-chloro[1,1'-biphenyl]-4-yl)carbonyl]cyclopentyl]thio]-, 1-methyl ester, (1α,2β,3α)-] | 33 nM | 108 nM | –
8 | O=C(CC(CCN1C(=O)c2ccccc2C1=O)C(=O)O)c1ccc(-c2ccc(Cl)cc2)cc1 (stereo not drawn) [Example 194, 2H-Isoindole-2-butanoic acid, α-[2-(4'-chloro[1,1'-biphenyl]-4-yl)-2-oxoethyl]-1,3-dihydro-1,3-dioxo-] | 38 nM | 1.8 nM | –
9 | O=C(CC(CCCc1ccccc1)C(=O)O)c1ccc(-c2ccccc2)cc1 (stereo not drawn) [Example 91, [1,1'-Biphenyl]-4-butanoic acid, γ-oxo-α-(3-phenylpropyl)-] | – | 2800 nM | MMP inhibitory activity / potency in words [1]: low potency
10 | O=C(CC(Cc1ccccc1)C(=O)O)c1ccc(-c2ccc(Cl)cc2)cc1 (stereo not drawn) [Example 105, [1,1'-Biphenyl]-4-butanoic acid, 4'-chloro-γ-oxo-α-(phenylmethyl)-] | – | 900 nM | –
11 | CCOc1ccc(-c2ccc(C(=O)[C@@H]3CC[C@@H](Sc4ccccc4)[C@H]3C(=O)O)cc2)cc1 (relative stereo) [Example 225, Cyclopentanecarboxylic acid, 2-[(4'-ethoxy[1,1'-biphenyl]-4-yl)carbonyl]-5-(phenylthio)-, (1α,2β,5α)-] | 66 nM | – | –
12 | CC(C)CC(CC(=O)c1ccc(-c2ccccc2)cc1)C(=O)O (stereo not drawn) [Example 13, [1,1'-Biphenyl]-4-butanoic acid, α-(2-methylpropyl)-γ-oxo-] | – | – | MMP inhibitory activity / potency in words [1]: low potency
13 | Cc1cc(C)cc(SCC(CC(=O)c2ccc(-c3ccc(Cl)cc3)cc2)C(=O)O)c1 (stereo not drawn) [Example 165, [1,1'-Biphenyl]-4-butanoic acid, 4'-chloro-α-[[(3,5-dimethylphenyl)thio]methyl]-γ-oxo-] | 1600 nM | – | –
14 | CC(C)CC(CC(O)c1ccc(-c2ccc(Cl)cc2)cc1)C(=O)O (stereo not drawn) [Example 26, [1,1'-Biphenyl]-4-butanoic acid, 4'-chloro-γ-hydroxy-α-(2-methylpropyl)-] | 2600 nM | 2400 nM | –
15 | CCOc1ccc(-c2ccc(C(=O)[C@@H]3CC[C@H](Cc4ccccc4)[C@H]3C(=O)O)cc2)cc1 (relative stereo) [Example 226, Cyclopentanecarboxylic acid, 2-[(4'-ethoxy[1,1'-biphenyl]-4-yl)carbonyl]-5-(phenylmethyl)-, (1α,2β,5β)-] | 98 nM | – | –
16 | CCN(CC)CCC(CC(=O)c1ccc(-c2ccc(Cl)cc2)cc1)C(=O)O (stereo not drawn) [Example 191, [1,1'-Biphenyl]-4-butanoic acid, 4'-chloro-α-[2-(diethylamino)ethyl]-γ-oxo-,hydrochloride] | – | – | inhibition at 5 µM ([3]; at 5 μM, read-out: MMP-9 Thiopeptilide % inhibition (I)): 31%
17 | O=C(O)[C@@H]1[C@H](Sc2ccc(Cl)cc2)CC[C@H]1C(=O)c1ccc(-c2ccc(Cl)cc2)cc1 (relative stereo) [Example 223, Cyclopentanecarboxylic acid, 2-[(4'-chloro[1,1'-biphenyl]-4-yl)carbonyl]-5-[(4-chlorophenyl)thio]-, (1α,2β,5α)-] | 340 nM | 700 nM | –
18 | O=C(C[C@@H](C[S+]([O-])c1ccccc1)C(=O)O)c1ccc(-c2ccc(Cl)cc2)cc1 (stereo partly drawn) [Example 126, [1,1'-Biphenyl]-4-butanoic acid, 4'-chloro-γ-oxo-α-[(phenylsulfmyl)methyl]-,stereoisomer] | – | – | MMP-3 Thiopeptilide % inhibition (I) ([2]; at 5 μM): 17%
19 | O=C(O)[C@@H]1[C@@H](C(=O)c2ccc(-c3ccc(Cl)cc3)cc2)CC[C@H]1Sc1ccccc1 (single isomer, unassigned) [Example 212, Cyclopentanecarboxylic acid, 2-[(4'-chloro[,1'-biphenyl]-4-yl)carbonyl]-5-(phenylthio)-, [1R-(1α,2β,5β)]-] | – | 640 nM | –
20 | O=C(O)[C@@H]1[C@@H](Cc2ccccc2)CC[C@H]1C(=O)c1ccc(-c2ccc(Cl)cc2)cc1 (relative stereo) [Example 227, Cyclopentanecarboxylic acid, 2-[(4'-chloro [1,1'-biphenyl]-4-yl)carbonyl]-5-(phenylmethyl)-, (1α,2β,5β)-] | 140 nM | – | –
